Test results published in PMC11864979, “First-in-class ultralong-target-residence-time p38α inhibitors as a mitosis-targeted therapy for colorectal cancer” (Nature Cancer, 2025).
Several values for one entry are separate records, joined by “and”; a condition that tells them apart may be missing. Equal entries are not always repeated. Where two headings read alike, the source gives them in different places.

How the values were obtained:
KMP liver metastasis = assay: survival of mice with KMP liver metastasis; type: in vivo, mouse
Procedure: Subcutaneous injection, splenic seeding or cecum injection of organoids was performed in 8–10-week-old C57BL/6 N/Crl, Rag2^−/− (B6.Cg-Rag2^tm1.1Cgn/J), or CB17 Scid beige (CB17.Cg-Prkdc^scidLyst^bg-J/Crl) mice, obtained from Charles River. The organoids were dissociated into single cells, washed with PBS and injected in a 1:1 mixture of PBS and Matrigel. For murine organoids, 1 × 10^5 cells were injected into the left and right flanks or the spleen capsule and 2 × 10^6 cells were injected into the cecum wall. For human organoids, 4 × 10^5 cells were injected into the flanks of CB17 Scid beige mice. For splenic seeding and cecum injection, mice were anaesthetized using ketamine (100 mg kg^−1, intraperitoneally) and xylazin (10 mg/kg, intraperitoneally) in NaCl and a small laparotomy below the thorax was performed.
No mice were excluded during treatment studies.

340 wild-type kinases [1] = molecular target: T1, 340 wild-type kinases (Homo sapiens, UniProt P09769); assay: selectivity profiling in a panel of 340 wild-type kinases (Reaction Biology Europe); type: binding
T1 construct: purchased Reaction Biology Europe

340 wild-type kinases [2] = molecular target: T2, 340 wild-type kinases (Homo sapiens, UniProt P25098); assay: as above; type: binding
T2 construct: purchased Reaction Biology Europe
T2 sequence (P25098 1-689): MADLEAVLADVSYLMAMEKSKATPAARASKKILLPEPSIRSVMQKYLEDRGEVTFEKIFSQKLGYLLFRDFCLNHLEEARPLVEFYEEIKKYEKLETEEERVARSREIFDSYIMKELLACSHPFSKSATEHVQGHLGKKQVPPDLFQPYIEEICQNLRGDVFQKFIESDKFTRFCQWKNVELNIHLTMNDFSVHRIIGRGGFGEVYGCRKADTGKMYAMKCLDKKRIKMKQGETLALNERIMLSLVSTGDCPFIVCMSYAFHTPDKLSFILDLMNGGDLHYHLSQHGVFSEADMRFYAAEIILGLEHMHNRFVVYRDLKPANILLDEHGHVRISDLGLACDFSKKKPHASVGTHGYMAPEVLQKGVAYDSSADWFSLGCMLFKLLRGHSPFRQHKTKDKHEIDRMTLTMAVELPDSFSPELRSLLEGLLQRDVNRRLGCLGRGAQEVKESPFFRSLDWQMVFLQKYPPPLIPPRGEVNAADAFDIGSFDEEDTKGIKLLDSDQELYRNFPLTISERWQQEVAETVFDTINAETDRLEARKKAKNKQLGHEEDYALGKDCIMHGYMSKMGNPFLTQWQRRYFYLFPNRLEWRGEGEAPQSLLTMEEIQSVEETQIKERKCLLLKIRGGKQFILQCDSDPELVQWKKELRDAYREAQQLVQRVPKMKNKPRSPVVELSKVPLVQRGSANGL

340 wild-type kinases [3] = molecular target: T3, 340 wild-type kinases (Homo sapiens, UniProt P36894); assay: as above; type: binding
T3 construct: purchased Reaction Biology Europe

340 wild-type kinases [4] = molecular target: T4, 340 wild-type kinases (Homo sapiens, UniProt P54760); assay: as above; type: binding
T4 construct: purchased Reaction Biology Europe
T4 sequence (P54760 16-987): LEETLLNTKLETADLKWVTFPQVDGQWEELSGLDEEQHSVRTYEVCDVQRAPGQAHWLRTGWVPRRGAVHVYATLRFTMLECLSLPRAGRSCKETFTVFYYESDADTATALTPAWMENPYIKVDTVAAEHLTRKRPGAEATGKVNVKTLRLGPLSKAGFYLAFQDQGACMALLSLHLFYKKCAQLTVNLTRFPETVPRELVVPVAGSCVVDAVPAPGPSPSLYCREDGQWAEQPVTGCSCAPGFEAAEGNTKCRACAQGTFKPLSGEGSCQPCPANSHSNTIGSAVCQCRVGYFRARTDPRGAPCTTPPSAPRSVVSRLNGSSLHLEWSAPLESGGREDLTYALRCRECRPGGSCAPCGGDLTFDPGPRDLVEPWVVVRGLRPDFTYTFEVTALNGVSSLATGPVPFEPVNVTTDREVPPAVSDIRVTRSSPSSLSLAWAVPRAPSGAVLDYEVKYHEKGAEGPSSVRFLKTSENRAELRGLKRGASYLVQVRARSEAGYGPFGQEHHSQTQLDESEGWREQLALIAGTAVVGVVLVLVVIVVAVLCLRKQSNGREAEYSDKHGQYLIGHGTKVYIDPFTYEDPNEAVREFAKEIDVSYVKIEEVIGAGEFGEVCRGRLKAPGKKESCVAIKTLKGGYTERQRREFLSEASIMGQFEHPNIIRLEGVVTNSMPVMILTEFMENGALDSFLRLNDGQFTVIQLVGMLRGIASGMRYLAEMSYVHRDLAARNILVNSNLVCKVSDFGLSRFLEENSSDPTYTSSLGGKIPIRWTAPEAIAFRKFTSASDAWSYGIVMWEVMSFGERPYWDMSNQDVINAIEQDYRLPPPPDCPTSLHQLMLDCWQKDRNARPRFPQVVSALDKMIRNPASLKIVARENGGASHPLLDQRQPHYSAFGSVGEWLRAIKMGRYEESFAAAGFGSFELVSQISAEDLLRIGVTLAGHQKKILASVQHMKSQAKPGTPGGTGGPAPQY

340 wild-type kinases [5] = molecular target: T5, 340 wild-type kinases (Homo sapiens, UniProt Q05397); assay: as above; type: binding
T5 construct: purchased Reaction Biology Europe

340 wild-type kinases [6] = molecular target: T6, 340 wild-type kinases (Homo sapiens, UniProt Q9Y2U5); assay: as above; type: binding
T6 construct: purchased Reaction Biology Europe
T6 sequence (Q9Y2U5 1-619): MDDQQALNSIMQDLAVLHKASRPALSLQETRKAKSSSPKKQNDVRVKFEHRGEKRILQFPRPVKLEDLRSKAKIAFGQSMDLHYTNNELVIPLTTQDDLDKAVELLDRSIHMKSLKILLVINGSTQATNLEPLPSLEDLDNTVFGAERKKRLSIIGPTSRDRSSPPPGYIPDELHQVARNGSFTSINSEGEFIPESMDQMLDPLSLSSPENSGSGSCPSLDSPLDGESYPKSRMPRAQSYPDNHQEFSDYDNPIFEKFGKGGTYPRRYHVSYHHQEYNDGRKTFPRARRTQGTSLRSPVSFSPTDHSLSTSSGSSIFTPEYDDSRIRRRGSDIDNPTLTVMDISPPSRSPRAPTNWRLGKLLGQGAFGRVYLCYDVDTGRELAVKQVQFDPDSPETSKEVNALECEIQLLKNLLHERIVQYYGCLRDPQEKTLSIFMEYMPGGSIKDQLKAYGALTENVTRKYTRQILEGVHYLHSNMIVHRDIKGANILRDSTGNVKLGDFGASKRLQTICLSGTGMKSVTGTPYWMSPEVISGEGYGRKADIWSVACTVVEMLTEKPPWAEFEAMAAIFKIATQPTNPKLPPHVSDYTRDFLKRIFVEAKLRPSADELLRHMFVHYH

T5 sequence (Q05397 whole entry): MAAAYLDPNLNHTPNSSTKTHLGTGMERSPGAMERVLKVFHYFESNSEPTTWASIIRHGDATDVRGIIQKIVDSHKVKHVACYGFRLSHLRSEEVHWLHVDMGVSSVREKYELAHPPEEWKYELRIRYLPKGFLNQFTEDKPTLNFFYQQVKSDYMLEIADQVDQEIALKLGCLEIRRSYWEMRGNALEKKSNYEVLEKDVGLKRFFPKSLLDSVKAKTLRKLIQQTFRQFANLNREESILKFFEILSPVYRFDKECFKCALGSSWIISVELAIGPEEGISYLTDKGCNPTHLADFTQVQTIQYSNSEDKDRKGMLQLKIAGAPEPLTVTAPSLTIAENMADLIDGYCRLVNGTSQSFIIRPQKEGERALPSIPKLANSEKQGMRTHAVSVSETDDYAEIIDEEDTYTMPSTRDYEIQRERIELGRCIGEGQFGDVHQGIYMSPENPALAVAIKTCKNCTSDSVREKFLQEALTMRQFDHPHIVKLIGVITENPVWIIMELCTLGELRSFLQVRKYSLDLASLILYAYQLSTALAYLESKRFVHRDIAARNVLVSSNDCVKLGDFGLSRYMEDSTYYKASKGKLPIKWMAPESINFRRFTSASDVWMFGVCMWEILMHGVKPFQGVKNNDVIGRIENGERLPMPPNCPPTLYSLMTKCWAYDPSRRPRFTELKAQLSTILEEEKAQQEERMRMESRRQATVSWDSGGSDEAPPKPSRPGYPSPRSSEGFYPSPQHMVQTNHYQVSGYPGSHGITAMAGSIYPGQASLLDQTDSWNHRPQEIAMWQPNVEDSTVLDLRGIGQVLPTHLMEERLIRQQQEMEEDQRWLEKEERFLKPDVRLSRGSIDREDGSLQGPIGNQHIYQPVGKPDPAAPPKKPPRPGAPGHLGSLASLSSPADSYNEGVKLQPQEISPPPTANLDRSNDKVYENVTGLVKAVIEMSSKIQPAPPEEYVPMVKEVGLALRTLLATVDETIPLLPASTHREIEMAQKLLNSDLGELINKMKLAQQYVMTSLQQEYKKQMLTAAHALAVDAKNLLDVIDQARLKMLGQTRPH
T3 sequence (P36894 24-532): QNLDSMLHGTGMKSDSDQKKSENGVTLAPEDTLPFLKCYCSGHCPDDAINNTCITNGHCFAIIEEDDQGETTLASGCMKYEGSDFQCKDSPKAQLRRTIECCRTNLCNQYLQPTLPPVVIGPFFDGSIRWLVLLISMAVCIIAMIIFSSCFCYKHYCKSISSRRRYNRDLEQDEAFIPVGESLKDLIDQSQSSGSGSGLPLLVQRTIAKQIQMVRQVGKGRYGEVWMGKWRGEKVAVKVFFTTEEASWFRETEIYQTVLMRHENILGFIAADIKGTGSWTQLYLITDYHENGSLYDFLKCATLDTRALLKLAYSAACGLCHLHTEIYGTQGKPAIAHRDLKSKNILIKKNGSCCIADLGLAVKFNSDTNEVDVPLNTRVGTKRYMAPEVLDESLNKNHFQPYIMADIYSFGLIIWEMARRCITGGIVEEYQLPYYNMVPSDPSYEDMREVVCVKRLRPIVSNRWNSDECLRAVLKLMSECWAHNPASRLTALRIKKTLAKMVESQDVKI
T1 sequence (P09769 whole entry): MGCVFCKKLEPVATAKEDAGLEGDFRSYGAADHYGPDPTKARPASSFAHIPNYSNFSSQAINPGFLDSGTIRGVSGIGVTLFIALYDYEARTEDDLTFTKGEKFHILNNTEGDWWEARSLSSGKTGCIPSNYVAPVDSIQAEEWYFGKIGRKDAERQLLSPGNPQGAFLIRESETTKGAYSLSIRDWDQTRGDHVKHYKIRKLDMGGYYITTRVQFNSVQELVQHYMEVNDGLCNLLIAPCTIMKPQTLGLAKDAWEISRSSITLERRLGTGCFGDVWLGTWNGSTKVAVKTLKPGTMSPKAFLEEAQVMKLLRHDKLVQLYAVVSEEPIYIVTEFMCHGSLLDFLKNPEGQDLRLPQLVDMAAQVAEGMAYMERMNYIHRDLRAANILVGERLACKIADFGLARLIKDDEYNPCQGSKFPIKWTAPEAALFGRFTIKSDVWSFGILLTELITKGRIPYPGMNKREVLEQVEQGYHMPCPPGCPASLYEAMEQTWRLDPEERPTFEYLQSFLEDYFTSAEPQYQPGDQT

In the case of `CNC(=O)c1ccc2c(c1)C(=O)c1ccc(Nc3ccc(F)c(NC(=O)C4CC4)c3)cc1CC2` [Compound 2015], the “Survival (d of treatment)” value (KMP liver metastasis; individual mice, KMP liver metastasis, treatment started 1 week after transplantation) is reported as 42 days and 50 days and 29 days and 31 days and 35 days and 44 days, the “Kaplan–Meier event entry in 2015 (1 or 0)” value (KMP liver metastasis; individual mice, KMP liver metastasis, meaning of 1/0 not given) is reported as 1 and 0 and the “survival of mice with KMP liver metastasis (in words)” value (KMP liver metastasis; long-term treatment) is reported as “significantly prolonged survival”. It also gave a remaining activity at 0.2 µM (340 wild-type kinases [1]; 0.2 µM 2015, read-out: FGR residual activity) of 101%, a remaining activity at 1 µM (340 wild-type kinases [1]; 1 µM 2015, read-out: FGR residual activity) of 102% and a remaining activity at 0.2 µM (340 wild-type kinases [1]; FGR, 0.2 µM, read-out: residual activity) of 101%. The remaining activity at 1 µM (340 wild-type kinases [1]; FGR, 1 µM, read-out: residual activity) was 102%, the remaining activity at 0.2 µM (340 wild-type kinases [2]; 0.2 µM 2015, read-out: GRK2 residual activity) was 89.1% and the remaining activity at 0.2 µM (340 wild-type kinases [2]; GRK2, 0.2 µM, read-out: residual activity) was 89.2%. The remaining activity at 1 µM (340 wild-type kinases [2]; GRK2, 1 µM, read-out: residual activity) was 80.8%, the remaining activity at 0.2 µM (340 wild-type kinases [3]; 0.2 µM 2015, read-out: BMPR1A residual activity) was 95.6% and the remaining activity at 1 µM (340 wild-type kinases [3]; 1 µM 2015, read-out: BMPR1A residual activity) was 98.5%. For the same molecule, the remaining activity at 0.2 µM (340 wild-type kinases [3]; BMPR1A, 0.2 µM, read-out: residual activity) was 95.6%, the remaining activity at 1 µM (340 wild-type kinases [3]; BMPR1A, 1 µM, read-out: residual activity) was 98.5% and the remaining activity at 0.2 µM (340 wild-type kinases [4]; 0.2 µM 2015, read-out: EPHB4 residual activity) was 101%. The remaining activity at 1 µM (340 wild-type kinases [4]; 1 µM 2015, read-out: EPHB4 residual activity) was 91.8%, the remaining activity at 0.2 µM (340 wild-type kinases [4]; EPHB4, 0.2 µM, read-out: residual activity) was 101% and the remaining activity at 1 µM (340 wild-type kinases [4]; EPHB4, 1 µM, read-out: residual activity) was 91.8%. For the same molecule, the remaining activity at 0.2 µM (340 wild-type kinases [5]; 0.2 µM 2015, read-out: FAK residual activity) was 121%, the remaining activity at 1 µM (340 wild-type kinases [5]; 1 µM 2015, read-out: FAK residual activity) was 115% and the remaining activity at 0.2 µM (340 wild-type kinases [5]; FAK, 0.2 µM, read-out: residual activity) was 121%. It also gave a remaining activity at 1 µM (340 wild-type kinases [5]; FAK, 1 µM, read-out: residual activity) of 115%, a remaining activity at 0.2 µM (340 wild-type kinases [6]; 0.2 µM 2015, read-out: MEKK2 residual activity) of 96.7% and a remaining activity at 1 µM (340 wild-type kinases [6]; 1 µM 2015, read-out: MEKK2 residual activity) of 95.1%. For the same molecule, the remaining activity at 0.2 µM (340 wild-type kinases [6]; MEKK2, 0.2 µM, read-out: residual activity) was 96.7% and the remaining activity at 1 µM (340 wild-type kinases [6]; MEKK2, 1 µM, read-out: residual activity) was 95.1%.
